From ChEMBL document CHEMBL1152712, “5-Hydroxyindole-type alkaloids, as Candida albicans isocitrate lyase inhibitors, from the tropical sponge Hyrtios sp” (Bioorg Med Chem Lett, 2009)
In brackets after ≈: the same amount, converted by molar mass.

Experiments:
Candida albicans = experiment: Antimicrobial activity against Candida albicans ATCC 10231; assay type: functional
Isocitrate lyase = Isocitrate lyase (Candida albicans, UniProt Q9P8Q7); experiment: Inhibition of Candida albicans isocitrate lyase
Sequence of Isocitrate lyase (Q9P8Q7 whole entry): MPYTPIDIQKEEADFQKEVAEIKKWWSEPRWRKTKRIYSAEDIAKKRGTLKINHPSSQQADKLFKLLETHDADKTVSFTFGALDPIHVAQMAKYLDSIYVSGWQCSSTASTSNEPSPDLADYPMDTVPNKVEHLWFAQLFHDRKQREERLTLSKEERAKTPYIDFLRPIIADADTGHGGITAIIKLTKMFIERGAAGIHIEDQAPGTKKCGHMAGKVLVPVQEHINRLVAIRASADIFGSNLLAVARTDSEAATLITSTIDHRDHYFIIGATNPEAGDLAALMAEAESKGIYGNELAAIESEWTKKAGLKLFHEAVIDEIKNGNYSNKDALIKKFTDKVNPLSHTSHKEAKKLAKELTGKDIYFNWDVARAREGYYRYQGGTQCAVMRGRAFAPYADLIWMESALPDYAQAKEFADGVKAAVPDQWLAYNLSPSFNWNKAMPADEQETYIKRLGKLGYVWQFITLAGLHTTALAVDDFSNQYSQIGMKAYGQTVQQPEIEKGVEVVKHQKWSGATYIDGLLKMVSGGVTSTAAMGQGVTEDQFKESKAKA

SMILES | MIC (Candida albicans) | IC50 (Isocitrate lyase)
O=C(O)CC[N+](=O)[O-] | > 1690 µM | –
COC(=O)c1c[nH]c2ccc(O)cc12 | > 1050 µM | 800 µM
O=Cc1c[nH]c2ccc(O)cc12 | > 1020 µM | 247 µM
NCCc1c[nH]c2ccc(O)cc12 [SEROTONIN] | > 1130 µM | 301 µM

Results, then the compound that gave them:

MIC (Candida albicans) | IC50 (Isocitrate lyase) | SMILES
> 989 µM | > 989 µM | O=C1NCCc2c1[nH]c1ccc(O)cc21
> 869 µM | 380 µM | O=C(O)C1=NCCc2c1[nH]c1ccc(O)cc21
1.7 µM (≈ 1.57 µg/mL) | – | C[C@@H]1[C@H](O)[C@@H](C)/C=C/C=C/C=C/C=C/C=C/C=C/C=C/[C@H](O[C@@H]2O[C@H](C)[C@@H](O)[C@H](N)[C@@H]2O)C[C@@H]2O[C@](O)(C[C@@H](O)C[C@@H](O)[C@H](O)CC[C@@H](O)C[C@@H](O)CC(=O)O[C@H]1C)C[C@H](O)[C@H]2C(=O)O [AMPHOTERICIN B]
> 1050 µM | 318 µM | O=C(CO)c1c[nH]c2ccc(O)cc12 [HYRTIOSIN A]
> 624 µM | 89 µM | O=C(C(=O)c1c[nH]c2ccc(O)cc12)c1c[nH]c2ccc(O)cc12 [HYRTIOSIN B]
